According to patent US20240360194A1, “New Peptides as Potent and Selective GIP Receptor Agonists” (Sanofi, priority 2021, published 2024):
≈ marks a conversion by molar mass, not a printed value. Like-named read-outs stand apart in the source and are kept apart here. Numbered stars: 1 amine (or outer) side, 2 acyl side, 3 side chain; on linkers, the order of the positions; unused ones are H or OH. Square brackets hold non-standard residues; d marks the D form. Side chains are listed from the residue outwards. Peptide text beside a SMILES is read from it. * marks the point of attachment. C18 diacid = O=C(O)CCCCCCCCCCCCCCCCC(=O)*; γGlu = O=C(O)[C@H](CCC(=O)[*:2])N[*:1]; AEEA = NCCOCCOCC(=O)O; Aib = CC(C)(N)C(=O)O

What was measured:
[1] = Chemical stability assessment (UHPLC-UV purity loss on storage in solution); type: physicochemical
Procedure, shortened: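 Peptides dissolved at ~300 μM (purity-corrected) in 20 mM phosphate pH 7.4, or 8 mM phosphate pH 7.4 with 14 mg/ml propylene glycol and 5.5 mg/ml phenol; filtered, stored 28 days at 5 and 40 °C. Supernatant analysed by UHPLC-UV; stability expressed as relative purity loss.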

[2] = Solubility assessment (UHPLC-UV of supernatant, target 10 mg/ml); type: physicochemical
Procedure, shortened: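 Peptides at 10 mg/ml (purity-corrected) in 100 mM phosphate pH 7.4, optionally with 2.7 mg/ml m-cresol; gentle agitation 1 h, then 5° C. overnight (24 h). Supernatant after 15 min centrifugation at 2500 RCF quantified by UHPLC-UV, with sequence-based extinction coefficients.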

[3] = molecular target: human GLP-1 receptor (hGLP-1R) (Homo sapiens, UniProt P43220); experiment: In vitro cellular cAMP assay for GLP-1 receptor efficacy (HEK-293 cell line over-expressing receptor); type: cell-based; conditions: HEK-293, 0.1% BSA
[4] = molecular target: T1, human GIP receptor (hGIPR) (Homo sapiens, UniProt P48546); experiment: Binding assay, displacement of [125I]GIP from HEK-293 membranes over-expressing GIPR (SPA); conditions: [125I]GIP displacement
T1 sequence (P48546 22-466): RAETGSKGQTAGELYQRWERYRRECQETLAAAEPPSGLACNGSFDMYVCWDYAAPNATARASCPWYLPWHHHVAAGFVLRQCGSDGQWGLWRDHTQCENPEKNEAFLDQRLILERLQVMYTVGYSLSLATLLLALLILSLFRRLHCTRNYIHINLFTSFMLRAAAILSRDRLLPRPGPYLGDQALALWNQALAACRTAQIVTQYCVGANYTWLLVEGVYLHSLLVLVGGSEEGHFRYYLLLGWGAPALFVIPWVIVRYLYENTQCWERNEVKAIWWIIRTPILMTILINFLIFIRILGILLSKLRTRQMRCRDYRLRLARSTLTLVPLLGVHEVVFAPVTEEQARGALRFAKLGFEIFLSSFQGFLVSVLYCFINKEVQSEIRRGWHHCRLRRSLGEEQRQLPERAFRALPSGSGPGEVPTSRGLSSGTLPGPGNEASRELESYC
Procedure, shortened: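 Membranes from HEK-293 cells over-expressing human GIPR or GLP-1R, isolated by homogenising, sonicating and ultracentrifuging at 100000×g into HEPES/EDTA/NaCl buffer with protease inhibitors, were used for binding.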

[5] = Pharmacokinetic evaluation in rats; type: in vivo; conditions: male, SD, rat
Protocol: Compounds were administered in a suitable buffer system, e.g. PBS buffer solution at pH7.4 or DPBS solution at concentrations of 0.05, 0.1, 0.5 or 1 mg/ml depending on dose, species and administration volume. Male SD rats were dosed 0.25 mg/kg, 0.5 mg/kg or 1 mg/kg intravenously (i.v.) or subcutaneously (s.c.). Blood samples were collected after 0.08, 0.25, 0.5, 1, 2, 4, 8, 24, 32, and 48 h post i.v. application and 0.25, 0.5, 1, 2, 4, 8, 24, 32, and 48 h post s.c. application, respectively. Plasma samples were analysed after protein precipitation via liquid chromatography mass spectrometry (LC/MS). PK parameters and half-life were calculated using Phoenix-WinNonlin 8.1 using a non-compartmental model and linear trapezoidal interpolation calculation. Pharmacokinetic profiles were determined as described in Methods.

[6] = Chemical stability buffer system A: 20 mM phosphate buffer pH 7.4, ~300 μM

Chain of human GLP-1 receptor (hGLP-1R) (P43220 24-463): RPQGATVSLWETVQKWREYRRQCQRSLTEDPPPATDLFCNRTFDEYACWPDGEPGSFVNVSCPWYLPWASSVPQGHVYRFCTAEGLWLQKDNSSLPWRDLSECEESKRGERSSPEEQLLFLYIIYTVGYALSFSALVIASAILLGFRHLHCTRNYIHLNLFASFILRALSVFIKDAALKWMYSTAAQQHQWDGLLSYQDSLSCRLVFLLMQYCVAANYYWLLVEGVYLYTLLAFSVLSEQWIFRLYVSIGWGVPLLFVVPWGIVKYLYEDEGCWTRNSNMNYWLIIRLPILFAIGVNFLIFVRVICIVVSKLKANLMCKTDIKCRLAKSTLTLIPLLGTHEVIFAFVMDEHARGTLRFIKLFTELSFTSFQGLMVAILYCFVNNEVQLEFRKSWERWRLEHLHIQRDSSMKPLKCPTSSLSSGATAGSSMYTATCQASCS

**Q.** Which “Relative purity loss over 28 days at 40° C.” value (from here on “Relative purity loss”) [1, 6] does the source give for CC[C@H](C)[C@H](NC(=O)[C@H](CCCNC(=N)N)NC(=O)[C@H](CC(=O)O)NC(=O)[C@H](CCCCNC(=O)COCCOCCNC(=O)COCCOCCNC(=O)CC[C@H](NC(=O)CCCCCCCCCCCCCCCCC(=O)O)C(=O)O)NC(=O)C(C)(C)NC(=O)[C@@H](NC(=O)[C@H](CO)NC(=O)[C@H](CC(C)C)NC(=O)[C@H](CC(=O)O)NC(=O)[C@H](CO)NC(=O)[C@@H](NC(=O)[C@H](Cc1ccccc1)NC(=O)[C@@H](NC(=O)CNC(=O)[C@H](CCC(=O)O)NC(=O)C(C)(C)NC(=O)[C@@H](N)Cc1ccc(O)cc1)[C@@H](C)O)[C@@H](C)CC)[C@@H](C)CC)C(=O)N[C@@H](Cc1c[nH]cn1)C(=O)N[C@@H](CCC(N)=O)C(=O)NC(C)(C)C(=O)N[C@@H](CCC(=O)O)C(=O)N[C@@H](Cc1ccccc1)C(=O)N[C@H](C(=O)N[C@@H](CCC(=O)O)C(=O)N[C@@H](Cc1c[nH]c2ccccc12)C(=O)N[C@@H](CC(C)C)C(=O)N[C@@H](CC(C)C)C(=O)N[C@@H](C)C(=O)N[C@@H](CCC(N)=O)C(=O)N[C@@H](CCCNC(=N)N)C(=O)NCC(N)=O)[C@@H](C)CC [SEQ ID NO: 6, H2N-Y-Aib-E-G-T-F-I-S-D-L-S-I-Aib-K[{AEEA}2-gGlu-C18OH]-D-R-I-H-Q-Aib-E-F-I-E-W-L-L-A-Q-R-G-NH2] here?
**A.** 5.6%

**Q.** What about the “Relative purity loss” value ([1]; Chemical stability buffer system B: 8 mM phosphate buffer pH 7.4, 14 mg/ml propylene glycol, 5.5 mg/ml phenol) of the same compound?
**A.** 5.9%

**Q.** And the solubility at 24 h ([2]; 100 mM phosphate buffer pH 7.4 (solubility buffer system A), pH 7.4, Solubility buffer system A: 100 mM phosphate buffer pH 7.4, read-out: Soluble amount)?
**A.** > 9000 µg/mL

**Q.** What about the solubility at 24 h ([2]; pH 7.4, Solubility buffer system C: 100 mM phosphate buffer pH 7.4, 2.7 mg/ml m-cresol, read-out: Soluble amount) of the same compound?
**A.** 1800 µg/mL (≈ 415 µM)

**Q.** What about the EC50 [3] of the same compound?
**A.** > 10 nM

**Q.** And the IC50 [4]?
**A.** 0.5 nM

**Q.** What about the AUC(0-t) ([5]; plasma, iv, rats, 0.25 mg/kg i.v., read-out: AUClast) of the same compound?
**A.** 35700 ng·h/mL

**Q.** What about the clearance ([5]; plasma, iv, rats, 0.25 mg/kg i.v., read-out: Cl (converted)) of the same compound?
**A.** 0.112 mL/min/kg

**Q.** What about the Cmax ([5]; plasma, iv, rats, 0.25 mg/kg i.v., read-out: Cmax) of the same compound?
**A.** 4620 ng/mL

**Q.** What about the half-life ([5]; plasma, iv, rats, 0.25 mg/kg i.v., read-out: T1/2 (converted)) of the same compound?
**A.** 11.2 h

**Q.** And the AUC(0-t) ([5]; plasma, sc, rats, 0.5 mg/kg s.c., read-out: AUClast)?
**A.** 69100 ng·h/mL

**Q.** What about the Cmax ([5]; plasma, sc, rats, 0.5 mg/kg s.c., read-out: Cmax) of the same compound?
**A.** 2880 ng/mL

**Q.** And the bioavailability ([5]; plasma, sc, rats, 0.5 mg/kg s.c., read-out: F)?
**A.** 98%

**Q.** And the half-life ([5]; plasma, sc, rats, 0.5 mg/kg s.c., read-out: T1/2 (converted))?
**A.** 9.7 h

**Q.** Which “Relative purity loss” value [1, 6] does the source give for CC[C@H](C)[C@H](NC(=O)[C@H](Cc1ccccc1)NC(=O)[C@H](CCC(=O)O)NC(=O)[C@H](CCC(=O)O)NC(=O)[C@H](CCC(N)=O)NC(=O)[C@H](Cc1c[nH]cn1)NC(=O)[C@@H](NC(=O)[C@H](CCCNC(=N)N)NC(=O)[C@H](CC(=O)O)NC(=O)[C@H](CCCCNC(=O)COCCOCCNC(=O)COCCOCCNC(=O)CC[C@H](NC(=O)CCCCCCCCCCCCCCCCC(=O)O)C(=O)O)NC(=O)C(C)(C)NC(=O)[C@@H](NC(=O)[C@H](CO)NC(=O)[C@H](CC(C)C)NC(=O)[C@H](CC(=O)O)NC(=O)[C@H](CO)NC(=O)[C@@H](NC(=O)[C@H](Cc1ccccc1)NC(=O)[C@@H](NC(=O)CNC(=O)[C@H](CCC(=O)O)NC(=O)C(C)(C)NC(=O)[C@@H](N)Cc1ccc(O)cc1)[C@@H](C)O)[C@@H](C)CC)[C@@H](C)CC)[C@@H](C)CC)C(=O)N[C@@H](CCC(N)=O)C(=O)N[C@@H](Cc1c[nH]c2ccccc12)C(=O)N[C@@H](CC(C)C)C(=O)N[C@@H](CC(C)C)C(=O)N[C@@H](C)C(=O)N[C@@H](CCC(N)=O)C(=O)NCC(=O)N1CCC[C@H]1C(=O)N[C@@H](CO)C(=O)N[C@@H](CO)C(=O)NCC(=O)N[C@@H](C)C(=O)N1CCC[C@H]1C(=O)N1CCC[C@H]1C(=O)N1CCC[C@H]1C(=O)N[C@@H](CO)C(N)=O [SEQ ID NO: 35, H2N-Y-Aib-E-G-T-F-I-S-D-L-S-I-Aib-K[{AEEA}2-gGlu-C18OH]-DRIHQEEFIQWLLAQGPSSGAPPPS-NH2] (H-Y[Aib]EGTFISDLSI[Aib]K([AEEA-AEEA-γGlu-C18 diacid])DRIHQEEFIQWLLAQGPSSGAPPPS-NH2) here?
**A.** 8.3%

**Q.** And the Soluble amount ([2]; 24 h, pH 7.4)?
**A.** >9.7 mg/mL

**Q.** And the solubility at 24 h ([2]; pH 7.4, Soluble amount)?
**A.** > 9500 µg/mL

**Q.** And the EC50 [3]?
**A.** > 10 nM

**Q.** And the IC50 [4]?
**A.** 0.6 nM

**Q.** And the AUC(0-t) ([5]; in vivo, iv, 0.25 mg/kg)?
**A.** 41600 ng·h/mL

**Q.** What about the Cmax ([5]; in vivo, iv, 0.25 mg/kg) of the same compound?
**A.** 5380 ng/mL

**Q.** What about the clearance ([5]; in vivo, iv, 0.25 mg/kg) of the same compound?
**A.** 0.0918 mL/min/kg

**Q.** And the half-life ([5]; in vivo, iv, 0.25 mg/kg)?
**A.** 14.5 h

**Q.** What about the AUC(0-t) ([5]; in vivo, sc, 0.5 mg/kg) of the same compound?
**A.** 49900 ng·h/mL

**Q.** What about the Cmax ([5]; in vivo, sc, 0.5 mg/kg) of the same compound?
**A.** 2010 ng/mL

**Q.** And the F ([5]; in vivo, sc, 0.5 mg/kg)?
**A.** 73%

**Q.** What about the half-life ([5]; in vivo, sc, 0.5 mg/kg) of the same compound?
**A.** 14.3 h
